Test results published in patent publication US9737596B2, “Vaccine for the prevention of breast cancer recurrence” (The Henry M. Jackson Foundation for the Advancement of …, priority 2008, dated 2017).

What was measured:
[1] = tested on: disease-free, high risk breast cancer patients; assay: Phase II trial: toxicity; assay type: in vivo, human; conditions: six monthly inoculations
Method: (§1) Disease-free, high risk breast cancer patients who have completed standard adjuvant therapy were enrolled at multiple sites and randomized to receive six monthly inoculations of either 500 mcg of GP2 with 125 mcg of GM-CSF (Peptide group; PG) or 125 mcg of GM-CSF alone (adjuvant group; AG). Toxicity was assessed after each inoculation. Immunologic response was monitored by measured delayed type hypersensitivity reactions (DTH) and an HLA-A2:Immunoglobulin dimer assay to detect GP2-specific CD8^+ T-lymphocytes. Patients were monitored clinically, radiographically, and pathologically for recurrence.

[2] = tested on: disease-free, high risk breast cancer patients; assay: Phase II trial: DTH reaction to GP2; assay type: in vivo, human
Method: as §1

[3] = tested on: GP2-specific CD8+ T-lymphocytes; assay: Phase II trial: HLA-A2:Immunoglobulin dimer assay, GP2-specific CD8+ T-lymphocytes; assay type: in vivo, human
Method: as §1

[4] = tested on: disease-free, high risk breast cancer patients; assay: Phase II trial: breast cancer recurrence; assay type: in vivo, human; conditions: median follow up of 17.9 months, preliminary data
Method: as §1

HLA-A2 molecule = conditions: cited from earlier work

Substance	grade 3-5 systemic toxicities [1]	grade 4-5 local toxicities [1]	patients with significant immunity (SI) by DTH (reaction larger than 1 cm) ([2]; post-vaccination) [%]	Median DTH reaction to GP2 ([2]; post-vaccination (after completion of primary series)) [cm]	Median DTH reaction to GP2 ([2]; pre-vaccination) [cm]	% GP2-specific CD8+ lymphocytes ([3]; 6 months after completion of the primary series) [%]	% GP2-specific CD8+ lymphocytes ([3]; baseline) [%]	recurrence rate [4] [%]	binding affinity for the HLA-A2 molecule (HLA-A2 molecule)
GM-CSF: granulocyte macrophage-colony stimulating factor, 125 mcg alone, control adjuvant group of phase II trial	no grade 3-5 systemic toxicities	no grade 4-5 local toxicities	45.5	0.5±3.3	0.0±1.0	1.41±0.49	1.08±0.16	13	
IISAVVGIL (listed as Homo sapiens) [GP2, nine amino acid peptide from the transmembrane portion of HER2/neu, amino acids 654-662]									relatively poor binding affinity
